Assay results published in US20050192261A1, “Methods and reagents for the treatment of immunoinflammatory disorders” (priority 2003, published 2005).
Read-outs that look alike come from different tables or passages of the source.

System: TNFα secretion in white blood cells from human buffy coat stimulated with phorbol 12-myristate 13-acetate and ionomycin
Assay: TNFα secretion assay
Settings: Homo sapiens; for inhibition at 0.2 µM: read-out: percent inhibition of TNFα secretion, Amoxapine 0.2 μM; for inhibition at 0.4 µM: read-out: percent inhibition of TNFα secretion, Amoxapine 0.4 μM; for inhibition at 0.8 µM: read-out: percent inhibition of TNFα secretion, Amoxapine 0.8 μM; for inhibition at 13 µM: read-out: percent inhibition of TNFα secretion, Amoxapine 13 μM; for inhibition at 25 µM: read-out: percent inhibition of TNFα secretion, Amoxapine 25 μM; for inhibition at 0.3 µM: read-out: % inhibition of TNFα secretion, Dipyridamole 0.3 μM; for inhibition at 19 µM: read-out: % inhibition of TNFα secretion, Dipyridamole 19 μM; for inhibition at 2 µM: read-out: % inhibition of TNFα secretion, Ibudilast 2 μM; for inhibition at 4 µM: read-out: % inhibition of TNFα secretion, Ibudilast 4 μM; for inhibition at 8 µM: read-out: % inhibition of TNFα secretion, Ibudilast 8 μM
[1] = Bromodiphenhydramine HCl μM: 0/0.21/0.43/0.85/1.7/3.4/6.8/14/27
[2] = Cyproheptadine HCl μM: 0/0.24/0.48/0.96/1.9/3.9/7.7/15/31
[3] = Loratadine 0/0.2/0.41/0.82/1.6/3.3/6.5/13/26 μM
[4] = Thiethylperazine Maleate μM: 0/0.2/0.39/0.78/1.6/3.1/6.3/13/25
[5] = Bromodiphenhydramine HCl μM r5-r13: 0,0.21,0.43,0.85,1.7,3.4,6.8,14,27
[6] = Cyproheptadine HCl μM r5-r13: 0,0.24,0.48,0.96,1.9,3.9,7.7,15,31
[7] = Loratadine μM r5-r13: 0,0.2,0.41,0.82,1.6,3.3,6.5,13,26
[8] = Thiethylperazine Maleate μM r5-r13: 0,0.2,0.39,0.78,1.6,3.1,6.3,13,25
[9] = Cyproheptadine HCl μM r5-r12: 0,0.24,0.48,0.96,1.9,3.9,7.7,15

Procedure: Drugs were added to the indicated concentration. […] The plate was then washed again with 0.1% Tween 20/PBS. An HRP-luminescent substrate was added to each well, and the light intensity of each well was measured using a plate luminometer.

## Clc1ccc2c(c1)C(N1CCNCC1)=Nc1ccccc1O2 [Amoxapine, amoxapine]
[1]
  inhibition at 0.2 µM: 4.3%
  inhibition at 0.4 µM: 13%
  inhibition at 0.8 µM: 20%
  inhibition at 13 µM: 80%
  inhibition at 25 µM: 92%
[2]
  inhibition at 0.2 µM: 3.5%
  inhibition at 0.4 µM: 9.8%
  inhibition at 0.8 µM: 17%
  inhibition at 13 µM: 85%
  inhibition at 25 µM: 94%
[3]
  inhibition at 0.2 µM: 7.52%
  inhibition at 0.4 µM: 11.2%
  inhibition at 0.8 µM: 22.2%
  inhibition at 13 µM: 83.7%
  inhibition at 25 µM: 88.2%
[4]
  inhibition at 0.2 µM: 12%
  inhibition at 0.4 µM: 12%
  inhibition at 0.8 µM: 24%
  inhibition at 13 µM: 74%
  inhibition at 25 µM: 83%

## OCCN(CCO)c1nc(N2CCCCC2)c2nc(N(CCO)CCO)nc(N3CCCCC3)c2n1 [Dipyridamole]
[5]
  inhibition at 0.3 µM: 0.92%
  inhibition at 19 µM: 71%
[6]
  inhibition at 0.3 µM: -0.27%
  inhibition at 19 µM: 63%
[7]
  inhibition at 0.3 µM: 9.6%
  inhibition at 19 µM: 70%
[8]
  inhibition at 0.3 µM: 7%
  inhibition at 19 µM: 71%

## CC(C)C(=O)c1c(C(C)C)nn2ccccc12 [Ibudilast]
read-out: % inhibition of TNFα secretion, Ibudilast 0.5 μM, Bromodiphenhydramine HCl μM r5-r13: 0,0.21,0.43,0.85,1.7,3.4,6.8,14,27
  inhibition at 0.5 µM: 19%
read-out: % inhibition of TNFα secretion, Ibudilast 0.5 μM, Cyproheptadine HCl μM r5-r12: 0,0.24,0.48,0.96,1.9,3.9,7.7,15
  inhibition at 0.5 µM: 20%
read-out: % inhibition of TNFα secretion, Ibudilast 0.5 μM, Loratadine μM r5-r13: 0,0.2,0.41,0.82,1.6,3.3,6.5,13,26
  inhibition at 0.5 µM: 21%
read-out: % inhibition of TNFα secretion, Ibudilast 0.5 μM, Thiethylperazine Maleate μM r5-r13: 0,0.2,0.39,0.78,1.6,3.1,6.3,13,25
  inhibition at 0.5 µM: 23%
read-out: % inhibition of TNFα secretion, Ibudilast 1 μM, Bromodiphenhydramine HCl μM r5-r13: 0,0.21,0.43,0.85,1.7,3.4,6.8,14,27
  inhibition at 1 µM: 24%
read-out: % inhibition of TNFα secretion, Ibudilast 1 μM, Cyproheptadine HCl μM r5-r12: 0,0.24,0.48,0.96,1.9,3.9,7.7,15
  inhibition at 1 µM: 23%
read-out: % inhibition of TNFα secretion, Ibudilast 1 μM, Loratadine μM r5-r13: 0,0.2,0.41,0.82,1.6,3.3,6.5,13,26
  inhibition at 1 µM: 32%
read-out: % inhibition of TNFα secretion, Ibudilast 1 μM, Thiethylperazine Maleate μM r5-r13: 0,0.2,0.39,0.78,1.6,3.1,6.3,13,25
  inhibition at 1 µM: 27%
[5]
  inhibition at 2 µM: 36%
  inhibition at 4 µM: 43%
  inhibition at 8 µM: 41%
[9]
  inhibition at 2 µM: 32%
  inhibition at 4 µM: 36%
  inhibition at 8 µM: 41%
[7]
  inhibition at 2 µM: 35%
  inhibition at 4 µM: 39%
  inhibition at 8 µM: 43%
[8]
  inhibition at 2 µM: 38%
  inhibition at 4 µM: 42%
  inhibition at 8 µM: 48%

## COc1ccc(C2CNC(=O)C2)cc1OC1CCCC1 (centres unmarked) [Rolipram]
read-out: % inhibition of TNFα secretion, Rolipram 0.5 μM, Bromodiphenhydramine HCl μM r5-r13: 0,0.21,0.43,0.85,1.7,3.4,6.8,14,27
  inhibition at 0.5 µM: 37%
read-out: % inhibition of TNFα secretion, Rolipram 0.5 μM, Cyproheptadine HCl μM r5-r13: 0,0.24,0.48,0.96,1.9,3.9,7.7,15,31
  inhibition at 0.5 µM: 44%
read-out: % inhibition of TNFα secretion, Rolipram 0.5 μM, Loratadine μM r5-r13: 0,0.2,0.41,0.82,1.6,3.3,6.5,13,26
  inhibition at 0.5 µM: 43%
read-out: % inhibition of TNFα secretion, Rolipram 0.5 μM, Thiethylperazine Maleate μM r5-r13: 0,0.2,0.39,0.78,1.6,3.1,6.3,13,25
  inhibition at 0.5 µM: 38%
read-out: % inhibition of TNFα secretion, Rolipram 1 μM, Bromodiphenhydramine HCl μM r5-r13: 0,0.21,0.43,0.85,1.7,3.4,6.8,14,27
  inhibition at 1 µM: 44%
read-out: % inhibition of TNFα secretion, Rolipram 1 μM, Cyproheptadine HCl μM r5-r13: 0,0.24,0.48,0.96,1.9,3.9,7.7,15,31
  inhibition at 1 µM: 38%
read-out: % inhibition of TNFα secretion, Rolipram 1 μM, Loratadine μM r5-r13: 0,0.2,0.41,0.82,1.6,3.3,6.5,13,26
  inhibition at 1 µM: 50%
read-out: % inhibition of TNFα secretion, Rolipram 1 μM, Thiethylperazine Maleate μM r5-r13: 0,0.2,0.39,0.78,1.6,3.1,6.3,13,25
  inhibition at 1 µM: 39%
